Literature values in US20040115234A1, “Cosmetic composition” (priority 2002, published 2004).

How the values were obtained:
eyelashes = conditions: Latanoprost at 0.005% by weight; clinical studies over up to 12 months; % of the subjects tested

solubility in water: limited solubility in water
Compound: CC(C)OC(=O)CCC/C=C\C[C@@H]1[C@@H](CC[C@@H](O)CCc2ccccc2)[C@H](O)C[C@@H]1O [Latanoprost, isopropyl-(Z)-7[(1R, 2R, 3R, 5S)3,5-dihydroxy-2-[(3R)-3-hydroxy-5-phenylpentyl]cyclopentyl]-5-heptenoate]
subjects with induced change in color of eyelashes (eyelashes): 16.5% | subjects with induced change in density of eyelashes (eyelashes): 22.2% | subjects with induced change in length of eyelashes (eyelashes): 25.8% | subjects with induced change in thickness of eyelashes (eyelashes): 17.5%
